Source: patent publication US20190233836A1, “MEANS AND METHODS TO INCREASE COUMARIN PRODUCTION” (VIB VZW, priority 2016, published 2019)

Test system: COSY
Experiment: Enzymatic activity of COSY: in vitro assay combined with tobacco 4CL and CoA
Format: biochemical, Arabidopsis thaliana
Conditions: 4CL and COSY added simultaneously, CoA present; purified COSY expressed in E. coli
From the text: FIG. 7: Enzymatic activity of COSY. COSY and 4CL were supplemented with either 2-hydroxy-p-coumaric acid (2OHpCA), 6-hydroxycaffeic acid (6OHCA) or 6-hydroxyferulic acid (6OHFA). Umbelliferone, esculetin and scopoletin were formed, respectively, only in the presence of CoA and the enzymes 4CL and COSY. The y-axis represents the normalized abundance, error bars show the standard deviation (n=4).
Although the idea of spontaneous isomerization and lactonisation in the biosynthesis of coumarins is now widely accepted in literature (Matsumoto S. et al., 2012; Yang et al., 2015) our cosy mutant data in Example 1 clearly contradict this. When we took a closer examination at the lactonisation reaction of the coumarin core structures we investigated the possible resemblance to an esterification-type reaction mediated by BAHD acyltransferases. BAHD family members utilize activated CoA-thioesters as acyl-donors and an alcohol or amine as the acyl acceptor to form an ester or amide, respectively. We therefore hypothesized that COUMARIN SYNTHASE (COSY) could be a BAHD acyltransferase responsible for the isomerization and lactonization of ortho-hydroxy-cinnamoyl CoA thioesters into coumarins. To verify the catalytic activity of COSY in vitro, COSY was expressed in Escherichia coli and the corresponding COSY protein purified. Potential substrates were chosen based on the phenolic profiling of the cosy mutants. […] Because neither 2′-hydroxy-p-coumaroyl-CoA, 6′-caffeoyl-CoA nor 6′-hydroxyferuloyl-CoA were commercially available, the corresponding acids were synthesized and the enzymatic assays were performed in combination with a tobacco 4-COUMARATE:CoA LIGASE (4CL) to catalyze the formation of the corresponding CoA thioesters in situ (Beuerle & Pichersky, 2002). In the samples where 4CL and COSY were added simultaneously, seemingly 100% 2-hydroxy-p-coumaric acid and 6-hydroxyferulic acid were converted into the corresponding coumarins, i.e., umbelliferone and scopoletin. […]

Compound	substrate converted into the corresponding coumarin (umbelliferone, scopoletin, esculetin)
COc1cc(/C=C/C(=O)O)c(O)cc1O [6-hydroxyferulic acid]	~100%
O=C(O)/C=C/c1cc(O)c(O)cc1O [6-hydroxycaffeic acid]	About 50%
O=C(O)/C=C/c1ccc(O)cc1O [2-hydroxy-p-coumaric acid]	~100%
